One compound from patent publication US12077555B2, “STAT degraders and uses thereof” (Kymera Therapeutics, Inc., priority 2019, dated 2024) can be followed below.

What all share (assay type): cell-based
Experiment [1] concerns the target T1, STAT3 (Homo sapiens, UniProt P40763). The experiment is described as follows: STAT3 HiBiT degradation assay in transfected A549 cells. As to conditions: A549, 24 h; read-out: STAT3 HiBiT A549 degradation 24 h: Average external-Abs DC50. Set-up: expressed in transfected cells; host or cells: A549. The gist of the method:
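Transfected A549 cells (~2000/well) plated 24 h, then treated 24 h at 37 °C, 5% CO2 with a 3-fold, 10-point compound dilution. HiBiT lytic luminescence read after 10 min at room temperature; remaining STAT3 normalized to negative and positive controls, four-parameter fit. DC50 binned A <0.01, B 0.01–0.1, C 0.1–1.0, D >1.0 µM.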
In general terms: With HiBiT, luminescence reflects the tagged protein that the partner subunit can reach.

For another experiment, the system named is SU-DHL-1 cells. The experiment in a line: wash-out study in SU-DHL-1 cells. The note with it: after 4 days. On the procedure: FIG. 10 depicts wash-out study results with I-103 at 24 hours (A) and 48 hours (B).
The target of experiment [2] is T1, STAT3. The experiment in a line: Deep tandem mass tag proteomics. The note with it: Molm-16 and SU-DHL-1 cells, 8 hours, FIGS. 4 and 13. The method, then:
Total protein was isolated from cells (e.g., Molm-16 and SU-DHL-1) and treated with degrader for 8 hours. Vehicle (DMSO)-treated cells were used as controls. Protein lysates, 2 biological replicates per condition, were prepared at 4 C in 8M urea, 75 mM NaCl, 1 mM EDTA in 50 mM Tris HCl (pH 8), 10 mM NaF, phosphatase inhibitor cocktail 2 (1:100; Sigma, P5726) and cocktail 3 (1:100; Sigma, P0044), 2 μg/mL aprotinin (Sigma, A6103), 10 μg/mL Leupeptin (Roche, 11017101001), and 1 mM PMSF (Sigma, 78830). Lysates were spun at 20,000 rcf for 10 min and supernatant (containing extracted proteins) was transferred to a clean microcentrifuge tube. Protein concentrations were determined using the Pierce BCA assay. Protein lysates were reduced with 5 mM dithiothreitol (Thermo Scientific, 20291) for 45 min at room temperature and alkylated with 10 mM iodoacetamide (Sigma, A3221) for an additional 45 min. […] Online fractionation was performed using a nanoflow Proxeon EASY-nLC 1200 UHPLC system (Thermo Fisher Scientific) and separated peptides were analyzed on a benchtop Orbitrap Q Exactive plus mass spectrometer (Thermo Fisher Scientific). All data were analyzed using Spectrum Mill software package (Agilent Technologies). […] In total, 10,992 proteins were quantified. […]

Another experiment deals with SU-DHL-1. The experiment is described as follows: STAT3 decrease needed for SU-DHL-1 apoptosis and cell growth inhibition (FIG. 8, 17). An excerpt: FIG. 8 depicts that a decrease of STAT3 by 90% using I-103 is necessary to induce SU-DHL-1 apoptosis and inhibit cell growth.
FIG. 17 depicts that a decrease of STAT3 by 90% using I-174 and I-94 is necessary to induce SU-DHL-1 apoptosis and inhibit cell growth.

T1 sequence (P40763 whole entry): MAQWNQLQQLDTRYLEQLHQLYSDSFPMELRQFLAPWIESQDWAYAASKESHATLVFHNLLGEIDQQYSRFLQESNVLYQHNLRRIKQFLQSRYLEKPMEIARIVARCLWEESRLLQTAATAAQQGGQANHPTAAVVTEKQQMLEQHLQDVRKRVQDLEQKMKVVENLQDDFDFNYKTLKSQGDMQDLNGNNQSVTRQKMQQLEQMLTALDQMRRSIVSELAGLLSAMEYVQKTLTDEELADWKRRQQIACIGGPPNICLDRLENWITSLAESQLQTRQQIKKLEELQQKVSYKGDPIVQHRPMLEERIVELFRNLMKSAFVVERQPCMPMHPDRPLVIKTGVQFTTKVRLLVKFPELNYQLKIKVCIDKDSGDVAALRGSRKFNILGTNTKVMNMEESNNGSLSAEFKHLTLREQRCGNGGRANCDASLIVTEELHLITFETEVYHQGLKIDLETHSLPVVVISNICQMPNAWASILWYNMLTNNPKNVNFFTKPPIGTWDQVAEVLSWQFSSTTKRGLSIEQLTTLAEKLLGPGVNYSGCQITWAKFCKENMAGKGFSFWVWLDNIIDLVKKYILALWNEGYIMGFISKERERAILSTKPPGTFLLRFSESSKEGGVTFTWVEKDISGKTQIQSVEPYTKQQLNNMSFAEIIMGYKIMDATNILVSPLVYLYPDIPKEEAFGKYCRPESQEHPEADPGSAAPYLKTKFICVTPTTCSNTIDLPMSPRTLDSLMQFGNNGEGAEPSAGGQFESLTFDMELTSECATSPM

On to `Cn1c(=O)n(C2CCC(=O)NC2=O)c2ccc(C[C@H]3CC[C@@H](CC(=O)N4CC[C@H]5CC[C@@H](C(=O)N[C@@H](CCC(N)=O)C(=O)NC(c6ccccc6)c6ccccc6)N5C(=O)[C@@H](NC(=O)c5cc6cc(C(=O)P(=O)(O)O)ccc6[nH]5)C4)CC3)cc21` (stereo partly drawn) [Compound I-174, 2-[[(5S,8S,10aR)-8-[[(1S)-3-carbamoyl-1-(diphenylmethylcarbamoyl)propyl]carbamoyl]-6-oxo-3-[2-[(1s,4s)-4-[[1-(2,6-dioxopiperidin-3-yl)-3-methyl-2-oxo-1,3-benzodiazol-5-yl]methyl]cyclohexyl]acetyl]-octahydropyrrolo[1,2-a][1,5]diazocin-5-yl]carbamoyl]-1H-indole-5-carbonylphosphonic acid], for which, at STAT3 [1], the DC50 (as a rule, the concentration giving 50% degradation) fell in the range of 10 to 100 nM. Further, the “growth and cell death after wash-out” value in the experiment on SU-DHL-1 cells (24 hours wash-out) is “strong growth inhibition and potential cell death”; in the experiment on SU-DHL-1 cells (48 hours wash-out), “complete growth inhibition and cell death”. Further, on STAT3 [2], the “selectivity of degradation for STAT3 vs >10,000 other detected proteins” value is on record as “highly selective for STAT3”. In addition, the “decrease of STAT3 necessary to induce SU-DHL-1 apoptosis and inhibit cell growth” value in the experiment with SU-DHL-1 stood at 90%.
